# Source: BindingDB's records for doi:10.1016/j.bmc.2007.10.061 (Osi Pharmaceuticals, 2008)
# Assays:
# [1] = target: 3-phosphoinositide-dependent protein kinase 1 (PDPK1) (Homo sapiens) (UniProt O15530); test: Inhibition of PDK1
# [2] = target: Mitogen-activated protein kinase 1 (ERK2) (Homo sapiens) (UniProt P28482); test: Inhibition of MAPK2
# Chain of Mitogen-activated protein kinase 1 (ERK2) (Homo sapiens) (P28482 whole entry, looked up): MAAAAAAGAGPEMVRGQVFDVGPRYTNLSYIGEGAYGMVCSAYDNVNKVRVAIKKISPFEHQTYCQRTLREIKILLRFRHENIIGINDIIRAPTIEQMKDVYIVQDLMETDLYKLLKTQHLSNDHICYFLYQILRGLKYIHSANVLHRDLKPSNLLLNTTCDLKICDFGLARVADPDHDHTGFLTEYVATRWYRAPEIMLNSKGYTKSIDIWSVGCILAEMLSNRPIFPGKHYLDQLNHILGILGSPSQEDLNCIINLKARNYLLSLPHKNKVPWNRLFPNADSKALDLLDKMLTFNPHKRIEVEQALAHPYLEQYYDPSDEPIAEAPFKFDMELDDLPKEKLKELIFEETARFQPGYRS
structure (smiles),measurement,setting,value
"Nc1nccn2c1c(-c1ccc3ccc(-c4ccccc4)nc3c1)nc2[C@H]1C[C@@H](CN2CCC2)C1 [cis-3-(3-(azetidin-1-ylmethyl)cyclobutyl)-1-(2-phenylquinolin-7-yl)imidazo[1,5-a]pyrazin-8-amine]",IC50,[1],> 30 µM
same,IC50,[2],> 10 µM
